This is an account of results in ChEMBL document CHEMBL4138165, “Design, synthesis and biological evaluation of new β-carboline-bisindole compounds as DNA binding, photocleavage agents and topoisomerase I inhibitors” (Eur J Med Chem, 2018).

For orientation: IC50 means the concentration that inhibits the measured activity by half. A lower IC50 goes with inhibition by little substance.

Holding throughout (format): functional, cell-based
For one assay, the system named is A549. Nature of the assay: Antiproliferative activity against human A549 cells after 48 hrs by MTT assay. The note with it: A549, 48 h. (In general: Tetrazolium assays rely on reduction of a dye to a coloured formazan, in cell work by metabolically active cells.)
Another assay relates to DU-145. Put plainly: Antiproliferative activity against human DU145 cells after 48 hrs by MTT assay. To be noted: DU-145, 48 h.
A further assay relates to HeLa. Put plainly: Antiproliferative activity against human HeLa cells after 48 hrs by MTT assay.
Another assay relates to MCF7. Put plainly: Antiproliferative activity against human MCF7 cells after 48 hrs by MTT assay. The note with it: MCF7, 48 h.
The test system of a further assay is NIH3T3. Put plainly: Antiproliferative activity against mouse NIH/3T3 cells after 48 hrs by MTT assay. The note with it: NIH3T3, 48 h.

As to `COc1ccc(-c2nc(C(c3c[nH]c4ccccc34)c3c[nH]c4ccc(C#N)cc34)cc3c2[nH]c2ccccc23)cc1` (configuration not stated), the IC50 in the assay on A549 turned out to be 13.7 µM; with DU-145 it was 14.8 µM; in the assay with HeLa, 30.9 µM; in the assay with MCF7, 28.9 µM; with NIH3T3, 119 µM.
In the same order, the values of `Fc1ccc(-c2nc(C(c3c[nH]c4ccc(F)cc34)c3c[nH]c4ccc(F)cc34)cc3c2[nH]c2ccccc23)cc1` are 18.5 µM, 15.8 µM, 18.1 µM, 19.8 µM and 114 µM.
In the same order, the values of `N#Cc1ccc2[nH]cc(C(c3cc4c([nH]c5ccccc54)c(-c4ccc(F)cc4)n3)c3c[nH]c4ccccc34)c2c1` (configuration not stated) are 15.7 µM, 2.34 µM, 17.1 µM, 26.3 µM and 58.1 µM.
In the same order, the values of `COc1ccc(-c2nc(C(c3c[nH]c4ccc(OC)cc34)c3c[nH]c4ccc(OC)cc34)cc3c2[nH]c2ccccc23)cc1` are 18.1 µM, 16.3 µM, 32.5 µM, 29.9 µM and 102 µM.
In the case of `COc1ccc2[nH]cc(C(c3cc4c([nH]c5ccccc54)c(-c4cc(OC)c(OC)c(OC)c4)n3)c3c[nH]c4ccccc34)c2c1` (configuration not stated), the IC50 with A549 is 20.4 µM; in the assay with DU-145 it was 19.5 µM; with HeLa, 39.8 µM; with MCF7, 44.2 µM; with NIH3T3, 100 µM.
In the same order, the values of `Cc1ccc(-c2nc(C(c3c[nH]c4ccc([N+](=O)[O-])cc34)c3c[nH]c4ccc([N+](=O)[O-])cc34)cc3c2[nH]c2ccccc23)cc1` are 6.92 µM, 6 µM, 10.9 µM, 16.9 µM and 145 µM.
In the case of `COc1ccc2[nH]cc(C(c3cc4c([nH]c5ccccc54)c(-c4ccc(C)cc4)n3)c3c[nH]c4ccc(OC)cc34)c2c1`, the half-inhibitory concentration (IC50) with A549 stood at 30.1 µM; in the assay on DU-145 it was 23.1 µM; in the assay on HeLa it was 33.8 µM; in the assay with MCF7, 27.4 µM; in the assay with NIH3T3 it was 59.3 µM.
With `Cc1ccc(-c2nc(C(c3c(C)[nH]c4ccc([N+](=O)[O-])cc34)c3c(C)[nH]c4ccc([N+](=O)[O-])cc34)cc3c2[nH]c2ccccc23)cc1`, the concentration for half-maximal inhibition (IC50) in the assay with A549 turned out to be 21.1 µM; in the assay on DU-145, 15 µM; in the assay with HeLa it was 28.1 µM; in the assay with MCF7 it was 22.8 µM; in the assay on NIH3T3 it was 52.1 µM.
In the same order, the values of `COc1cc(-c2nc(C(c3c[nH]c4ccc(Br)cc34)c3c[nH]c4ccc(Br)cc34)cc3c2[nH]c2ccccc23)cc(OC)c1OC` are 21.8 µM, 14.7 µM, 15.8 µM, 33.4 µM and 64.3 µM.
In the same order, the values of `COc1cc(-c2nc(C(c3c[nH]c4ccccc34)c3c[nH]c4ccc(C#N)cc34)cc3c2[nH]c2ccccc23)cc(OC)c1OC` (configuration not stated) are 19.3 µM, 19 µM, 9.86 µM, 11.8 µM and 57.2 µM.
In the same order, the values of `COc1ccc(-c2nc(C(c3c[nH]c4ccc(Br)cc34)c3c[nH]c4ccc(Br)cc34)cc3c2[nH]c2ccccc23)cc1` are 9.24 µM, 2.63 µM, 15 µM, 18.6 µM and 86.3 µM.
Consider `COc1cc(-c2nc(C(c3c(C)[nH]c4ccc([N+](=O)[O-])cc34)c3c(C)[nH]c4ccc([N+](=O)[O-])cc34)cc3c2[nH]c2ccccc23)cc(OC)c1OC`, for which the IC50 was 31.7 µM with A549; 20.7 µM in the assay with DU-145; 22.6 µM in the assay with HeLa; 33.1 µM with MCF7; 105 µM with NIH3T3.
For `COc1ccc2c(c1)[nH]c1c(C)nccc12` [HARMINE], the IC50 with A549 came out at 7.76 µM; with DU-145, 12 µM; with HeLa, 16.2 µM; in the assay on MCF7, 10.8 µM.
Consider `COc1cc(-c2nc(C(c3c[nH]c4ccc(F)cc34)c3c[nH]c4ccc(F)cc34)cc3c2[nH]c2ccccc23)cc(OC)c1OC`, for which the IC50 was 16.9 µM in the assay with A549; 10.1 µM in the assay with DU-145; 12.2 µM in the assay with HeLa; 13.6 µM in the assay with MCF7; 118 µM in the assay on NIH3T3.
In the same order, the values of `COc1ccc(-c2nc(C(c3c[nH]c4ccc([N+](=O)[O-])cc34)c3c[nH]c4ccc([N+](=O)[O-])cc34)cc3c2[nH]c2ccccc23)cc1` are 10.4 µM, 9.31 µM, 18 µM, 50.1 µM and 118 µM.
In the same order, the values of `COc1ccc(-c2nc(C(c3c[nH]c4ccc(F)cc34)c3c[nH]c4ccc(F)cc34)cc3c2[nH]c2ccccc23)cc1` are 27.6 µM, 8.33 µM, 35.5 µM, 30.6 µM and 94.4 µM.
As for `Cc1ccc(-c2nc(C(c3c[nH]c4ccc(C#N)cc34)c3c[nH]c4ccc(C#N)cc34)cc3c2[nH]c2ccccc23)cc1`, the IC50 with A549 worked out at 11 µM; in the assay with DU-145, 7.32 µM; with HeLa, 16 µM; in the assay on MCF7, 17.4 µM; in the assay on NIH3T3, 60.6 µM.
In the same order, the values of `Cc1ccc(-c2nc(C(c3c[nH]c4ccccc34)c3c[nH]c4ccccc34)cc3c2[nH]c2ccccc23)cc1` are 10 µM, 13.7 µM, 14.3 µM, 18.1 µM and 101 µM.
In the same order, the values of `Fc1ccc(-c2nc(C(c3c[nH]c4ccc(Br)cc34)c3c[nH]c4ccc(Br)cc34)cc3c2[nH]c2ccccc23)cc1` are 8.3 µM, 7.74 µM, 9.5 µM, 18.3 µM and 90.1 µM.
Consider `COc1cccc2c1C(=O)c1c(O)c3c(c(O)c1C2=O)C[C@@](O)(C(=O)CO)C[C@@H]3O[C@H]1C[C@H](N)[C@H](O)[C@H](C)O1` [DOXORUBICIN], for which the IC50 in the assay on DU-145 was 2.13 µM; in the assay on HeLa, 1.73 µM; with MCF7, 2.18 µM.
As to `COc1ccc2[nH]cc(C(c3cc4c([nH]c5ccccc54)c(-c4ccc(F)cc4)n3)c3c[nH]c4ccc(OC)cc34)c2c1`, the IC50 in the assay on A549 was determined as 14.6 µM; in the assay with DU-145, 10.6 µM; in the assay with HeLa it was 23.7 µM; in the assay with MCF7, 34.6 µM; in the assay with NIH3T3 it was 110 µM.
In the same order, the values of `COc1cc(-c2nc(C(c3c[nH]c4ccccc34)c3c[nH]c4ccccc34)cc3c2[nH]c2ccccc23)cc(OC)c1OC` are 22.7 µM, 12.8 µM, 21.4 µM, 34.9 µM and 92.9 µM.
In the same order, the values of `COc1ccc(-c2nc(C(c3c(C)[nH]c4ccc([N+](=O)[O-])cc34)c3c(C)[nH]c4ccc([N+](=O)[O-])cc34)cc3c2[nH]c2ccccc23)cc1` are 11.7 µM, 16.6 µM, 21.5 µM, 25.3 µM and 126 µM.
